In patent publication US10624893B2 (priority 2016, dated 2020):
≈ marks a conversion by molar mass, not a printed value. Like-named read-outs stand apart in the source and are kept apart here.

Assays:
[1] = tested on: Mycobacterium tuberculosis (H37Rv strain from ATCC cat #27294) expressing the green-fluorescent protein (GFP); test: microbe, parasite or virus in culture; assay type: cell-based; settings: 120 h
[2] = tested on: Mycobacterium tuberculosis growing inside murine Raw 264.7 cell line; test: microbe, parasite or virus in culture; assay type: cell-based; settings: H37RV, RAW264.7, 120 h
[3] = tested on: M. tuberculosis H37Rv strain; settings: for reduction of microorganism burden in lungs with respect to untreated controls (Day 9): C57BL/6 mice
[4] = tested on: Mycobacterium bovis BCG str. Pasteur 1173P2; test: microbe, parasite or virus in culture; assay type: cell-based
[5] = tested on: Mycobacterium tuberculosis growing inside human THP-1 monocytes; test: Intracellular viability assay 1a (THP-1, luciferase, Steady-Glo); assay type: cell-based, Mycobacterium tuberculosis H37Rv; settings: THP-1, 120 h
[6] = tested on: Mycobacterium tuberculosis growing inside human THP-1 monocytes; test: Intracellular viability assay 1b (THP-1, luciferase, Bright-Glo); assay type: cell-based, Mycobacterium tuberculosis H37Rv; settings: THP-1, 120 h
[7] = tested on: M. tuberculosis strain H37Rv; test: Extracellular viability assay, glucose media (Method 2), resazurin MIC; assay type: cell-based; settings: Mycobacterium tuberculosis
[8] = tested on: Mycobacterium tuberculosis Erdman strain; test: Extracellular viability assay, Erdman strain, cholesterol media (Method 3); assay type: cell-based; settings: 0.01% cholesterol medium, 7 days + 48 h resazurin, average over 5 measurements
M. africanum = test: Extracellular MIC assay of Example 7, M. africanum; assay type: cell-based; settings: Mycobacterium tuberculosis, cholesterol medium
M. bovis 0AF2122 = test: microbe, parasite or virus in culture; assay type: cell-based; settings: Mycobacterium tuberculosis variant bovis, 0AF2122, read-out: MIC 2
[9] = read-out: IC50 (uM) (cholesterol media)
[10] = read-out: IC50 (uM) (glucose media)

Structure (SMILES): NNC(=O)c1ccncc1 [Isoniazid]
- IC50 [1, 9]: 0.2 µM
- IC50 [1, 10]: 0.5 µM
- IC50 [2]: 0.07 µM

Structure (SMILES): COc1c(N2C[C@@H]3CCCN[C@@H]3C2)c(F)cc2c(=O)c(C(=O)O)cn(C3CC3)c12 [Moxifloxacin, reference compound]
- reduction of microorganism burden in lungs with respect to untreated controls (Day 9) ([3]; 30 mg/kg once a day for 8 days): 3.2 log10 CFU

Structure (SMILES): CO[C@H]1/C=C/O[C@@]2(C)Oc3c(C)c(O)c4c(O)c(c(/C=N/N5CCN(C)CC5)c(O)c4c3C2=O)NC(=O)/C(C)=C\C=C\[C@H](C)[C@H](O)[C@@H](C)[C@@H](O)[C@@H](C)[C@H](OC(C)=O)[C@@H]1C [Rifampicin, reference compound]
- inhibition at 2 µM ([4]; Mycobacterium tuberculosis variant bovis BCG, BCG): 100%
- IC50 [1, 9]: 0.04 µM
- IC50 [1, 10]: 0.02 µM
- IC50 [5]: 0.01 µM
- IC50 [6]: 0.002 µM
- IC50 [2]: 0.2 µM

Structure (SMILES): Cc1cccc(OC2CCN(Cc3cc(=O)[nH]c(=O)[nH]3)CC2)c1C [Test Compound, 6-((4-(2,3-dimethylphenoxy)piperidin-1-yl)methyl)pyrimidine-2,4(1H,3H)-dione]
- % Inhibition [4]: 46.18%
- IC50 [1, 9]: 0.28 µM
- IC50 [1, 10]: > 20 µM
- MIC [7]: > 12.5 µM
- IC50 [8]: 0.874 µM
- IC50 [5]: 0.39 µM
- IC50 [6]: 0.07 µM
- IC50 [2]: 0.06 µM
- MIC (M. africanum; read-out: MIC 1): 1.2 µM (≈ 0.395 µg/mL)
- MIC (M. africanum; read-out: MIC 2): 1.2 µM (≈ 0.395 µg/mL)
- MIC (M. bovis 0AF2122): 0.78 µM (≈ 0.257 µg/mL)
- reduction of microorganism burden in lungs with respect to untreated controls (Day 9) ([3]; 200 mg/kg once a day for 8 days): 1.6 log10 CFU
- oral bioavailability (conclusion from murine in vivo data) ([3]; mouse): orally bioavailable
